The values that follow come from ChEMBL document CHEMBL1201862, “PubChem BioAssay data set” (2004).

Calls of active or inactive are those of the source. Where only a bound is given, the exact number is not on record here.

Assay [1] can be described thus: viability loss in HeLa cells – cytotoxicity control for MgcRacGAP inhibitor project, dose response (AID 624300). The class given is functional.
The target in assay [2] is T1, Rac GTPase-activating protein 1 (Homo sapiens, UniProt Q9H0H5).
T1 sequence (Q9H0H5 whole entry): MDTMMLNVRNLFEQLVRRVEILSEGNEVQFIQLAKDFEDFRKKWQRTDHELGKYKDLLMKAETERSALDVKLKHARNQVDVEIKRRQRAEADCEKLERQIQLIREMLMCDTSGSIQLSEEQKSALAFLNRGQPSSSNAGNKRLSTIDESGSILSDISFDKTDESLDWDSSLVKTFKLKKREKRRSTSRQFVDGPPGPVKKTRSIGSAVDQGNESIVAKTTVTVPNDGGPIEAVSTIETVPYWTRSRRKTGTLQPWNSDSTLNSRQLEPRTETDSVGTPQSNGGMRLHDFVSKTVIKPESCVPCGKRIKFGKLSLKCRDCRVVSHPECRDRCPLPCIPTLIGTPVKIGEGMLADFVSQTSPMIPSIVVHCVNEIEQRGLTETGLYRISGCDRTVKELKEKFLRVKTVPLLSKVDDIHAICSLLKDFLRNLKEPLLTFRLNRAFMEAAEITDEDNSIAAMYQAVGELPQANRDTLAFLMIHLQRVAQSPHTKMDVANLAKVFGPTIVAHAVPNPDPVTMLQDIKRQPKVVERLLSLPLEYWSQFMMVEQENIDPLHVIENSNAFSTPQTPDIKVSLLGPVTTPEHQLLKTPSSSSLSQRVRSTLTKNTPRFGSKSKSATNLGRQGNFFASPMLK
Kind of assay: blockers of MgcRacGAP-driven Rac1 GTP hydrolysis – biochemical, ADP Hunter fluorescence, primary and confirmatory, confirmation (AID 624330). The class given is functional.

A further assay addresses Mu-type opioid receptor (Homo sapiens, UniProt P35372). The class given is functional, cell-based.
In assay [3] the target is 5-hydroxytryptamine receptor 2A (Mus musculus, UniProt P35363). The class given is functional, cell-based.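 Further: CHO-K1 cells with tagged receptor and beta-arrestin; agonist potency measured as compound-induced activation of the receptor.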
Assay [4] is described as follows: intracellular Trypanosoma cruzi inhibitors in host cells – cell-based, plate reader, cherry-pick samples, set 3, dose response (AID 651818).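 Further: compounds incubated with infected cells for about four days.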 The class given is functional.
A short description of assay [5]: inhibition of ADAM10 peptide cleavage – biochemical, FRET peptide substrate, recombinant human ADAM10, selectivity assay for ADAM17 exosite inhibitor project, dose response (AID 743259).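 Further: ADAM10 enzyme cleaving a FRET peptide substrate.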
In assay [6] the target is Disintegrin and metalloproteinase domain-containing protein 17 (Homo sapiens, UniProt P78536). Kind of assay: exosite inhibitors of ADAM17, dose response, biochemical (AID 743260).
Assay [7] can be described thus: Trypanosoma cruzi growth suppression in host cells – NIH3T3 host cells, beta-gal luminescence, confirmation (AID 2044).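 Further: intracellular parasites grown in NIH/3T3 mouse fibroblasts as host cells; luminescent beta-galactosidase reporter signal from transgenic T. cruzi replicating inside host cells; inhibitors lower the luminescence signal.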 The class given is functional, cell-based.
Assay [8] is described as follows: NIH3T3 cell viability loss – ATP luminescence, mouse fibroblasts, counter-screen, dose response (AID 2010).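 Further: cells exposed to compound for about 90 hours before reading.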 The class given is functional, cell-based. (The purpose of a counterscreen is to sort out artefacts and off-target activity.)
The target of assay [9] is Mitogen-activated protein kinase 10 (Homo sapiens, UniProt P53779). In words: Dose response biochemical screening assay for inhibitors of c-Jun N-Terminal Kinase 3 (JNK3). [Related pubchem assays: 746 ].
Assay [10] in a line: NIH-3T3 fibroblast cytotoxicity, dose response, cytotoxicity control, cell-based, fluorescence, Alamar Blue, secondary assay (AID 2327).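 Further: NIH-3T3 mouse fibroblasts cultured with fluconazole at 8 µg/mL.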 The class given is functional.
Assay [11] in a line: fluconazole-exposed Candida albicans growth modulators – fluorescence, retest, confirmation (AID 2467). The class given is functional, cell-based.
In assay [12] the target is T2, Serine/threonine-protein phosphatase (Candida dubliniensis (strain CD36 / CBS 7987 / NCPF 3949 / NRRLY-17841) (Yeast), UniProt B9W6M3).
T2 sequence (B9W6M3 whole entry): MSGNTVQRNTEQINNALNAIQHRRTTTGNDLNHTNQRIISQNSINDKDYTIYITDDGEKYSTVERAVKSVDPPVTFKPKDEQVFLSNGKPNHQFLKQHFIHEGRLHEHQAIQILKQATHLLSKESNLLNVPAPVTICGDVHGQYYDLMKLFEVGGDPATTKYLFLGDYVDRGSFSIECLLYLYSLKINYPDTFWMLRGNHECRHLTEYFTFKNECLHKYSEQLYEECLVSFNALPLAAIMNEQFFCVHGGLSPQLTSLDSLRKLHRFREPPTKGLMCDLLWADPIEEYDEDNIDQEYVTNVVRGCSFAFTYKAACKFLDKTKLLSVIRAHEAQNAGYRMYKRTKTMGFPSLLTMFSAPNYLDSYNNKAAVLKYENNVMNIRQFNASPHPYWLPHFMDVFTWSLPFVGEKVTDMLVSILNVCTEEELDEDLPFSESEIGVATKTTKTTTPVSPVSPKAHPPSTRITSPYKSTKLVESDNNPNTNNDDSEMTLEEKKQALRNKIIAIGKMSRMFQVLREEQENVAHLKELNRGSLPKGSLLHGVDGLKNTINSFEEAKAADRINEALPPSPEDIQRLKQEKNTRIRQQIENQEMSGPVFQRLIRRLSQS
Kind of assay: blockers of CaCl2-induced CDRE-lacZ signaling – S. cerevisiae, luminescence, secondary, dose response (AID 2388).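 Further: yeast reporter cells carrying a calcineurin-responsive lacZ construct stimulated with calcium chloride; luminescent beta-galactosidase reporter signal in whole cells rather than isolated phosphatase activity; potency for inhibition where a drop in reporter signal means calcineurin blockade.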 The class given is functional, cell-based.

Assay [13] can be described thus: microbe, parasite or virus in culture. The class given is functional. The note with it: Mycobacterium tuberculosis.
Assay [14] has as its target ATP-dependent molecular chaperone HSP82 (Candida albicans (strain WO-1) (Yeast), UniProt C4YTQ8). In words: steroid-induced GRE reporter decrease in yeast – S. cerevisiae, luminescence, Hsp90 inhibitor project, dose response (AID 2400).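 Further: beta-galactosidase luminescence from glucocorticoid response element reporter as proxy for Hsp90 function; inhibitor potency where signal loss means Hsp90 inhibition.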 The class given is functional, cell-based.
The target of assay [15] is Heat shock protein HSP 90-alpha (Homo sapiens, UniProt P07900). In words: Luminescence-based dose response biochemical high throughput screening assay for inhibitors of the Heat Shock Protein 90 (HSP90). [Related pubchem assays: 1831 (Summary AID.), 1846 (Confirmation screen.), 1789 (Primary screen.)].
The nature of assay [16]: OVCAR8 cell viability loss – plate reader, dry powder samples, PAX8 project, dose response (AID 743197). The class given is functional, cell-based. Conditions: OVCAR-8.
The target of another assay is Paired box protein Pax-8 (Homo sapiens, UniProt Q06710). Kind of assay: PAX8 transcriptional activity inhibition in RMG-I – RMG-I cells, luciferase, cherry-pick, dose response (AID 687027).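 Further: luciferase reporter driven by Pax8 target thyroperoxidase promoter measured by SteadyGlo luminescence.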 The class given is functional, cell-based.
Assay [17] can be described thus: general mammalian cell viability loss – inhibitor set, cherry-pick, set 2, cytotoxicity control for miR-122 modulator project, dose response (AID 720697). The class given is functional, cell-based.
For assay [18], the target named is T3, Mannose-6-phosphate isomerase (Homo sapiens, UniProt P34949).
T3 sequence (P34949 whole entry): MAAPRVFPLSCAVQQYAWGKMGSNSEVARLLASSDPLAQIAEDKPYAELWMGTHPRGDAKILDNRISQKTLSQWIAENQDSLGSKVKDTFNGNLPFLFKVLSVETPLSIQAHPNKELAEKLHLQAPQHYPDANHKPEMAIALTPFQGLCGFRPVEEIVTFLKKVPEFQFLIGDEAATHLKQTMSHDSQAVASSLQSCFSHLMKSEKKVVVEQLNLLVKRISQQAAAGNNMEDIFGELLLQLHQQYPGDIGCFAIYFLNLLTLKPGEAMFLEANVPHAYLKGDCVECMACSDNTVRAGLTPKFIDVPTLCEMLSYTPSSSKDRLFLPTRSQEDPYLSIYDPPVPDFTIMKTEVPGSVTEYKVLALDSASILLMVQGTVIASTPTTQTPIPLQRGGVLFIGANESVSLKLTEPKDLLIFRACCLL
Kind of assay: MPI inhibition at elevated mannose 6-phosphate – biochemical, fluorescence intensity, high mannose 6-phosphate, primary screen (AID 1220).

In assay [19] the target is T3, Mannose-6-phosphate isomerase. Kind of assay: MPI enzyme activity inhibition – biochemical, fluorescence intensity, coupled assay, primary screen (AID 1209).
The next assay deals with Major prion protein (Homo sapiens, UniProt P04156). The class given is functional, cell-based.
The target in a further assay is Large T antigen (Simian virus 40, UniProt P03070). The class given is functional, Betapolyomavirus macacae.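 Further: Confirmatory-stage PubChem screen for compounds that inhibit SV40 T antigen.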
A short description of assay [20]: HIV-1 AD8 envelope cell-cell fusion blockers – cherry-pick, dose response (AID 652062).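 Further: luciferase signal from cell-cell fusion driven by HIV-1 clade B AD8 Env; potency is for inhibitors of fusion seen as a drop in luminescence.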 The class given is functional, cell-based.
The nature of assay [21]: blockers of HIV-1 envelope-mediated cell-cell fusion – cherry-pick, dose response (AID 652057). The class given is functional, cell-based.

Usually IC50 stands for the concentration at which inhibition is half-maximal. `Cn1nccc1C(=O)Nc1ccc(OC(=O)c2ccnn2C)cc1`: the CC50 in assay [1] was 100 µM (active). In addition, in assay [2], the IC50 was 16.7 µM (active).

By EC50 is commonly meant the concentration giving half of the maximal effect. In the case of `c1ccc(N2CCN(Cc3ccc4c(c3)OCO4)CC2)nc1`, the figures for the EC50 (on Mu-type opioid receptor; in assay [3]) were 92.5 µM (inactive) and 0.0228 µM (active), respectively.

Usually AC50 stands for the midpoint of the concentration-response curve, whichever way the signal moves. As for `C[C@@H]1CCCCO[C@H](CN(C)S(=O)(=O)c2cccs2)[C@@H](C)CN([C@H](C)CO)C(=O)c2cc(NC(=O)Nc3ccc(C(F)(F)F)cc3)ccc2O1`, the AC50 in assay [4] is 4.91 µM (active).

With `COc1ccc(CN(C)C[C@H]2Oc3ccc(NC(=O)Nc4ccc(C(F)(F)F)cc4)cc3CC(=O)N([C@H](C)CO)C[C@H]2C)cc1`, the AC50 in assay [4] was 3.5 µM (active).

`COc1ccc(NC(=O)C2(C)Cc3c(-c4cccc(C(F)(F)F)c4)ccnc3O2)cn1` (stereo not given): the IC50 in [5] is 32.4 µM (inactive); in assay [6], > 69.5 µM (inactive).

In the case of `Cc1ccc(S(=O)(=O)N(CCCO)CC(O)CON=C2c3ccccc3-c3ccccc32)cc1` (stereo not given), the EC50 was 1.6 µM (active) in assay [7] and > 60 µM (not active) in [8]. Further, the IC50 in assay [5] is > 7.72 µM (active); in assay [6], > 69.5 µM (inactive).

Regarding `c1ccc2c(c1)nc(N1CCOCC1)c1c3ccccc3[nH]c21`, the IC50 in [9] was 30.4 µM (not active).

On to `CCCN1CCC[C@H](c2cccc(O)c2)C1`, for which the EC50 on Mu-type opioid receptor was 92.4 µM (inactive); in [3] it was 0.711 µM (active).

Consider `Cc1ccnc(Sc2ccc([N+](=O)[O-])cc2[N+](=O)[O-])n1`, for which the EC50 in assay [10] was 14.2 µM (active); in assay [11], 0.91 µM (active); in assay [12] it was > 180 µM (inactive); in assay [14] it was 23.6 µM (active). In addition, the CC50 in assay [13] was 7.25 µM (active).

In the case of `CCOc1ccc(-c2nc(CN(Cc3ccccc3)C[C@@H]3CCC(=O)N3)c(C)o2)cc1`, the IC50 in assay [15] is 3.05 µM (active).

Take `C[C@@H]1CCCCO[C@@H](CN(C)Cc2ccncc2)[C@H](C)CN([C@H](C)CO)C(=O)c2cc(NC(=O)Nc3ccc(C(F)(F)F)cc3)ccc2O1`: the AC50 was 53.8 µM (active) in [16] and 6.48 µM (active) at Paired box protein Pax-8.

As for `C[C@H](NC(=O)C[C@@H]1CC[C@H]2[C@H](COc3ccc(NS(=O)(=O)c4ccc(Cl)cc4)cc3C(=O)N2C)O1)c1ccccc1`, in assay [17], the AC50 is 9.74 µM (active).

Consider `CC(C)(C)N1C(=O)Cc2c1nc(N)c1c(N)nc(N3CCCCC3CO)c(C#N)c21` (stereo not given), for which the IC50 in assay [18] and in assay [19] was > 50 µM (not active) in each case.

Regarding `C[C@@H]1CCCCO[C@@H](CN(C)Cc2ccc(Cl)c(Cl)c2)[C@H](C)CN([C@@H](C)CO)C(=O)c2cc(NS(=O)(=O)c3ccc(Cl)cc3)ccc2O1`, the results for the AC50 (in assay [16]; on Paired box protein Pax-8) were 44 µM (active) and 7 µM (active), respectively.

`CCCn1c(N)c(C(=O)CSc2nncs2)c(=O)[nH]c1=O`: the half-maximal inhibitory concentration (IC50) was 5.88 µM (active) at Major prion protein and > 138 µM (inactive) in “cells”.

For `CCN(c1ccccc1)S(=O)(=O)c1ccc(N2CCN(c3ccc(O)cc3)CC2)nc1`, the CC50 in [1] is 100 µM (active). The IC50 in assay [2] was 40.5 µM (active).

In the case of `CCOC(=O)NC(=O)CSc1cc(C)c2cc(C)cc(C)c2n1`, the IC50 at Major prion protein was 9.4 µM (active); in the assay “cells”, > 138 µM (inactive).

Regarding `CCOc1cccc(OCCOc2ccc(C(=O)c3ccccc3)cc2)c1`, the IC50 in assay [5] and in assay [6] was > 69.5 µM (inactive) throughout.

For `COC(=O)CSc1nc(-c2ccccc2)nc2ccc(F)cc12`, the figures for the IC50 at Major prion protein and in the assay “cells” were 2.56 µM (active) and > 138 µM (inactive), respectively.

For `Cc1ccc(S(=O)(=O)Nc2cccc3c2O[C@@H](CN(C)Cc2ccc(Oc4ccccc4)cc2)[C@@H](C)CN([C@H](C)CO)C3=O)cc1`, the AC50 is 2.89 µM (active) in assay [4] and 12.2 µM (active) on Paired box protein Pax-8.

For the compound `COc1cccc(N2CCN(Cc3nc(N)nc(N4CCCc5ccccc54)n3)CC2)c1`, the figures for the EC50 (at Mu-type opioid receptor; in assay [3]) were 92.4 µM (inactive) and 76.1 µM (inactive), respectively.

For `CCc1cc(S)n2c(nc3ccccc32)c1C#N`, the IC50 at Large T antigen is 99.8 µM (active). The EC50 in assay [10] is > 150 µM (inactive); in [11] it was 0.254 µM (active); in assay [12], > 180 µM (inactive); in [14], > 150 µM (inactive).

In the case of `COc1cc(CC(=O)Nc2ncc(C)s2)cc(OC)c1OC`, in assay [9], the IC50 was 13.3 µM (not active).

`Cc1ccccc1S(=O)(=O)N1C[C@H](O)COC[C@H]2O[C@@H](CC(=O)NCc3ccccc3Cl)CC[C@@H]21`: the AC50 in assay [20] is 6.43 µM (active); in assay [21], 1.12 µM (active).
